From US20230053540A1, “TREATMENT OF LIVER INJURY” (Massachusetts Institute of Technology, priority 2019, published 2023)

Test system: hepatocytes
Assay: Seq-Well scRNA-Seq of hepatocytes after APAP overdose (signature scores, DEG vs untreated)
Assay type: in vivo, mouse
Settings: A6 vs UT

## CC(=O)Nc1ccc(O)cc1 [APAP, acetaminophen]
  Ddc avg_logFC: −0.3608
  Ddc pct.1: 0.241
  Ddt avg_logFC: −0.5222
  Ddx3x avg_logFC: 0.6569
  Ddx3y A6logFC: 0.3395
  Ddx5 avg_logFC: 0.5229
  Ddx6 avg_logFC: 0.4443
  Ddx6 pct.1: 0.527
  Ddx21 avg_logFC: 0.7314
  Ddx27 A6logFC: 0.2522
  Ddx27 avg_logFC: 0.2522
  Ddx27 pct.1: 0.286
  Deb1 A6logFC: −0.267
  Deb1 avg_logFC: −0.267
  Deb1 pct.1: 0.274
  Dera A6logFC: −0.2674
  Dera avg_logFC: −0.2674
  Dera pct.1: 0.32
  Derl2 A6logFC: −0.3317
  Dgkd avg_logFC: 0.3708
  Dgkd pct.1: 0.282
  Dhrs3 avg_logFC: −0.4676
  Dhrs3 pct.1: 0.198
  Dhrs4 A6logFC: −0.3321
  Diap1 A6logFC: 0.3259
  Diap1 avg_logFC: 0.3259
  Diap1 pct.1: 0.382
  Dio1 avg_logFC: −0.5453
  Dio1 pct.1: 0.253
  Dkc1 avg_logFC: 0.3258
  Dkc1 pct.1: 0.315
  Dnaja2 A6logFC: 0.3723
  Dnajc5 A6logFC: 0.3265
  Dnajc19 A6logFC: −0.316
  Dot1l avg_logFC: 0.397
  Dot1l pct.1: 0.282
  Dsp A6logFC: 0.2655
  Dsp avg_logFC: 0.2655
  Dsp pct.1: 0.32
  Dst avg_logFC: 0.511
  Dst pct.1: 0.43
  Dusp5 avg_logFC: 0.2964
  Dusp6 avg_logFC: 0.5916
  Dusp16 avg_logFC: 0.4605
  Dusp16 pct.1: 0.372
  Dync1h1 A6logFC: 0.3796
  Eaf1 avg_logFC: 0.5218
  Eaf1 pct.1: 0.427
  Ebpl avg_logFC: −0.4503
  Ebpl pct.1: 0.196
  Eea1 A6logFC: 0.2612
  Eea1 avg_logFC: 0.2612
  Eea1 pct.1: 0.363
  Efhd2 avg_logFC: 0.5838
  Egr1 avg_logFC: 0.5846
  Egr1 pct.1: 0.589
  Eif1a avg_logFC: 0.7953
  Eif3a avg_logFC: 0.3147
  Eif3a pct.1: 0.542
  Eif4a1 A6logFC: 0.2519
  Eif4a1 avg_logFC: 0.2519
  Eif4a1 pct.1: 0.418
  Eif4b A6logFC: 0.3682
  Eif4ebp1 A6logFC: 0.2617
  Eif4ebp1 avg_logFC: 0.2617
  Eif4ebp1 pct.1: 0.387
  Eif4g1 avg_logFC: 0.3749
  Eif4g1 pct.1: 0.723
  Eif4g2 avg_logFC: 0.5597
  Eifia A6logFC: 0.3147
  Eifib A6logFC: 0.2503
  Eific A6logFC: 0.302
  Ell2 avg_logFC: 0.4172
  Ell2 pct.1: 0.535
  Elovl3 avg_logFC: −0.5067
  Elovl3 pct.1: 0.568
  Elovl5 A6logFC: 0.3352
  Elovl5 avg_logFC: 0.3352
  Elovl5 pct.1: 0.63
  Epas1 avg_logFC: 0.7758
  Epb4.1 avg_logFC: 0.5628
  Epb4.1 pct.1: 0.537
  Erf3b avg_logFC: 0.2503
  Erf3b pct.1: 0.449
  Errfi1 avg_logFC: 0.3937
  Errfi1 pct.1: 0.943
  Etnppl avg_logFC: 0.4182
  Etnppl pct.1: 0.706
  Ets2 avg_logFC: 0.6956
  Fabp1 avg_logFC: −1.016
  Fabp2 avg_logFC: −0.6156
  Fam25c A6logFC: −0.2977
  Fam107b avg_logFC: 0.4633
  Fam107b pct.1: 0.449
  Fam134b avg_logFC: 0.8936
  Fam195a A6logFC: −0.2649
  Fam214a A6logFC: −0.2658
  Fbxo21 A6logFC: −0.2631
  Fcgr3 avg_logFC: 0.3082
  Fcgr3 pct.1: 0.107
  Fdps A6logFC: −0.2663
  Fdx1 avg_logFC: −0.6234
  Fga avg_logFC: 0.6934
  Fgb avg_logFC: 0.6469
  Fgg avg_logFC: 0.6153
  Fitm1 avg_logFC: −0.3242
  Fitm1 pct.1: 0.012
  Fkbp5 avg_logFC: 0.5161
  Fndc3b avg_logFC: 0.4096
  Fndc3b pct.1: 0.315
  Fpgs avg_logFC: −0.3494
  Fpgs pct.1: 0.146
  Ftsj3 A6logFC: 0.2552
  Ftsj3 avg_logFC: 0.2552
  Ftsj3 pct.1: 0.346
  Furin avg_logFC: 0.2536
  Furin pct.1: 0.477
  Fus A6logFC: 0.3393
  Fxyd1 avg_logFC: −0.4799
  Fxyd1 pct.1: 0.432
  Fxyd5 avg_logFC: 0.2743
  G6pc avg_logFC: −0.9601
  Gabarap avg_logFC: −0.4425
  Gabarap pct.1: 0.518
  Gadd45a A6logFC: 0.2829
  Gadd45a avg_logFC: 0.2829
  Gadd45a pct.1: 0.251
  Gadd45gip1 A6logFC: −0.3041
  Gamt avg_logFC: −0.5603
  Gars A6logFC: 0.2576
  Gars avg_logFC: 0.2576
  Gars pct.1: 0.334
  Gcat A6logFC: −0.2587
  Gcat avg_logFC: −0.2587
  Gcat pct.1: 0.315
  Gcgr A6logFC: −0.2576
  Gcgr avg_logFC: −0.2576
  Gcgr pct.1: 0.446
  Gch1 avg_logFC: −0.2691
  Gch1 pct.1: 0.461
  Gclc avg_logFC: 1.903
  Gclm avg_logFC: 0.2699
  Gclm pct.1: 0.695
  Gcnt2 avg_logFC: 0.5375
  Gda A6logFC: 0.2663
  Gda avg_logFC: 0.2663
  Gda pct.1: 0.243
  Gfra1 avg_logFC: 0.3864
  Gfra1 pct.1: 0.599
  Gjb2 avg_logFC: 0.6082
  Gldc A6logFC: 0.2802
  Gldc avg_logFC: 0.2802
  Gldc pct.1: 0.465
  Glo1 avg_logFC: −0.4066
  Glo1 pct.1: 0.513
  Glyat avg_logFC: −0.6477
  Glyctk A6logFC: 0.2977
  Gm4952 avg_logFC: −0.4987
  Gm4952 pct.1: 0.198
  Gm5424 A6logFC: 0.2698
  Gm5424 avg_logFC: 0.2698
  Gm5424 pct.1: 0.411
  Gm13775 avg_logFC: −1.066
  Gm15564 avg_logFC: 1.443
  Gm20594 A6logFC: 0.2957
  Gm23388 avg_logFC: 0.4162
  Gm23388 pct.1: 0.222
  Gm23935 avg_logFC: 0.4242
  Gm23935 pct.1: 0.878
  Gm24187 avg_logFC: 0.4319
  Gm24187 pct.1: 0.2
  Gm24601 avg_logFC: 0.4684
  Gm26917 avg_logFC: 0.6012
  Gm26917 pct.1: 0.382
  Gm26924 avg_logFC: 1.161
  Gn13 avg_logFC: 0.576
  Gnai2 A6logFC: 0.2817
  Gnai2 avg_logFC: 0.2817
  Gnai2 pct.1: 0.391
  Gnas A6logFC: 0.2589
  Gnas avg_logFC: 0.2589
  Gnas pct.1: 0.79
  Gne avg_logFC: −0.4251
  Gne pct.1: 0.263
  Gnl2 avg_logFC: 0.3905
  Gnl2 pct.1: 0.384
  Gnmt avg_logFC: −0.3334
  Gnmt pct.1: 0.962
  Golga4 avg_logFC: 0.3521
  Gpt2 avg_logFC: 0.5391
  Gpx1 avg_logFC: −0.7686
  Grn avg_logFC: 0.5408
  Gsk3b avg_logFC: 0.4065
  Gsk3b pct.1: 0.384
  Gsr A6logFC: 0.4128
  Gsta1 avg_logFC: 0.4076
  Gstk1 A6logFC: −0.2828
  Gstk1 avg_logFC: −0.2828
  Gstk1 pct.1: 0.351
  Gstm3 avg_logFC: −0.4111
  Gstm3 pct.1: 0.265
  Gstz1 avg_logFC: −0.4641
